# Like-named read-outs stand apart in the source and are kept apart here.
# Legend:
# [1] = system: Influenza A virus (H1N1, A/PR/8/34) ATCC VR-1469; assay: Anti-influenza virus verification test (focus assay on MDCK cells); assay type: cell-based; conditions: for Minimum inactivation concentration / Evaluation result (Δ LOG (FFU/mL) class): Influenza virus; for Minimum inactivation concentration: minimum concentration at which Δ LOG (FFU/mL) is 3 or more; for inactivation effect in the presence of hardness components (in words): Table 5: influenza virus, 4 °DH, contact 10 min
# [2] = system: Betacoronavirus 1 (OC43) ATCC VR-1558; assay: Anti-human coronavirus verification test (TCID50 on HCT-8 cells); assay type: cell-based
# [3] = system: Pseudomonas syringae phage ϕ6 (NBRC 105899); assay: Anti-bacteriophage ϕ6 verification test (plaque assay); assay type: cell-based; conditions: Bacteriophage Φ6; hardness of water 0 °DH; contact time 10 min; minimum concentration at which Δ LOG (PFU/mL) is 3 or more
# [4] = Critical micelle concentration at 25° C. by pyrene fluorescence intensity ratio I1/I3; assay type: physicochemical; conditions: ion exchange water
# Description: A critical micelle concentration of component (a) or (a′) at 25° C. was measured by the method below.
# A 1×10^−3 mol/L ethanol solution of pyrene (FUJIFILM Wako Pure Chemical Corporation) was prepared in a brown screw cap tube, and 5 μl of the solution was placed in a screw cap tube (No. 3) and dried with dry air. 5 mL of an aqueous solution of component (a) or (a′) to be measured (prepared with ion exchange water) was added thereto and processed with an ultrasonic cleaner for 15 minutes, and using this, fluorescence spectrum measurements were performed with a fluorescence spectrophotometer (Fluorescence Spectrophotometer F-7000 (manufactured by Hitachi High-Tech Corporation)). Fluorescence intensities I1 and I3 at wavelengths λ1 of 373 nm and λ3 of 384 nm were measured under the measurement conditions below to calculate fluorescence intensity ratio I1/I3.
# A graph was prepared on which the horizontal axis plots a concentration of component (a) or (a′) and the vertical axis plots a fluorescence intensity ratio I1/I3, at each concentration, and a surfactant concentration at the midpoint between the maximum value and the minimum value of I1/I3 was taken as the critical micelle concentration.
# Excitation wavelength: 339 nm, slit on the excitation side: […], slit on the fluorescence side: […], scanning rate: 60 nm/min, liquid temperature: 25° C., measurement range: 350 to 400 nm
# [5] = Krafft point measurement with rhodamine 6G; assay type: physicochemical; conditions: 0.2 mass % in ion exchange water
# Description: A krafft point of component (a) or (a′) was measured by the method below.
# A solution obtained by diluting component (a) or (a′) with ion exchange water to attain a total amount of 5 mL and a concentration of 0.2 mass % was prepared and placed in a glass test tube, and the fluorescent dye rhodamine 6G (FUJIFILM Wako Pure Chemical Corporation) was then added to attain a final concentration of 0.02 mM. After the test tube was placed in an ice bath to condition a temperature at 5° C., the temperature was raised at a temperature rise rate of 0.5° C./min, and a temperature at which the solution emitted fluorescence was taken as the krafft point. Component (a) or (a′) which had emitted fluorescence at 5° C. was considered to have a krafft point of less than 5° C.
# [6] = hardness of water 0 °DH, contact time 10 min
# [7] = Human coronavirus, hardness of water 0 °DH, contact time 10 min, […]
# [8] = 100 ppm, hardness of water 0 °DH, contact time 0.5 min
# [9] = 100 ppm, hardness of water 0 °DH, contact time 1 min
# [10] = 100 ppm, hardness of water 0 °DH, contact time 5 min
# [11] = 100 ppm, hardness of water 0 °DH, contact time 10 min
# [12] = 500 ppm, hardness of water 4 °DH, contact time 10 min
Molecule,"Minimum inactivation concentration [1, 6]","Minimum inactivation concentration [2, 7]",Minimum inactivation concentration [3],critical micelle concentration (25° C.) [4],krafft point [5],"Evaluation result (Δ LOG (FFU/mL) class) [1, 8]","Evaluation result (Δ LOG (FFU/mL) class) [1, 9]","Evaluation result (Δ LOG (FFU/mL) class) [1, 10]","Evaluation result (Δ LOG (FFU/mL) class) [1, 11]",Minimum inactivation concentration [2],"Evaluation result (Δ LOG (FFU/mL) class) [1, 12]",inactivation effect in the presence of hardness components (in words) ([1]; 500 ppm),"inactivation effects on the enveloped virus by short-time contact (in words) ([1]; Table 4: influenza virus, 100 ppm, 0 °DH, contact 0.5 to 10 min, compared to comparative examples 5 and 6)"
"CCCCCCCCCCCCCCCCOS(=O)(=O)[O-].[Na+] [(a′-3), sodium alkyl sulfate with 16 carbons]",>500 ppm,>>2000 ppm,>500 ppm,0.00045 mol/L,40 °C,,,,,,,,
"CCCCC(CC)COC(=O)CC(C(=O)OCC(CC)CCCC)S(=O)(=O)[O-].[Na+] (stereo not shown) [(a′-1), sodium di(2-ethylhexyl)sulfosuccinate]",250 ppm,,250 ppm,0.0028 mol/L,,1 (a Δ LOG (FFU/mL) of the infectious titers of less than 1),1 (a Δ LOG (FFU/mL) of the infectious titers of less than 1),1 (a Δ LOG (FFU/mL) of the infectious titers of less than 1),2 (a Δ LOG (FFU/mL) of 1 or more and less than 2),>250 ppm,,,
"CCCCCCCC/C=C\CCCCCCCC(=O)[O-].[K+] [(a′-5), potassium oleate]",,,,0.0015 mol/L,,,,,,,1 (a Δ LOG (FFU/mL) of the infectious titers of less than 1),insufficient inactivation effect,
sodium di(2-propylheptyl)sulfosuccinate [(a-1)],50 ppm,100 ppm,10 ppm,0.00035 mol/L,,4 (a Δ LOG (FFU/mL) of 3 or more),4 (a Δ LOG (FFU/mL) of 3 or more),4 (a Δ LOG (FFU/mL) of 3 or more),4 (a Δ LOG (FFU/mL) of 3 or more),,4 (a Δ LOG (FFU/mL) of 3 or more),high inactivation effects,high inactivation effects
"CCCCCCCCCCCCOS(=O)(=O)[O-].[Na+] [(a′-4), sodium alkyl sulfate with 12 carbons]",>500 ppm,>2000 ppm,>500 ppm,0.0082 mol/L,,,,,,,,,
